Test results from ChEMBL document CHEMBL1201862, “PubChem BioAssay data set” (2004).
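All cell lines were grown in 96-well plates and treated with compound for 48 hours. Here, GI50 denotes the concentration required for 50% inhibition of growth.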 Activity calls are given as the source filed them. Rule as the data show it: active = GI50 up to about 1.1 µM and inactive = higher.

Legend:
Assay in all cases: DTP human tumour cell line panel, 48 h
A498 = tested on: A498
LOX IMVI = tested on: LOX IMVI
UO-31 = tested on: UO-31
SK-MEL-2 = tested on: SK-MEL-2
K562 = tested on: K562
SK-MEL-28 = tested on: SK-MEL-28
ACHN = tested on: ACHN
A549 = tested on: A549
SK-MEL-5 = tested on: SK-MEL-5
RPMI-8226 = tested on: RPMI-8226
NCI-H522 = tested on: NCI-H522
IGROV-1 = tested on: IGROV-1
U-251 = tested on: U-251
SF-539 = tested on: SF-539
NCI-H226 = tested on: NCI-H226
MDA-MB-435 = tested on: MDA-MB-435
CAKI-1 = tested on: CAKI-1
Malme-3M = tested on: Malme-3M
SNB-19 = tested on: SNB-19
HL-60 = tested on: HL-60

Measured: GI50

NC(=O)NNc1nc2ccccc2c(=O)n1NC(=O)C(=O)Nc1ccc(Cl)cc1Cl
inactive: A498 > 100 µM | LOX IMVI > 100 µM | UO-31 > 100 µM | SK-MEL-2 > 100 µM | K562 > 100 µM | SK-MEL-28 > 100 µM | ACHN > 100 µM | A549 > 100 µM | SK-MEL-5 > 100 µM | RPMI-8226 > 100 µM | NCI-H522 > 100 µM | IGROV-1 64 µM | U-251 > 100 µM | SF-539 > 100 µM | NCI-H226 > 100 µM | MDA-MB-435 > 100 µM | CAKI-1 > 100 µM | Malme-3M > 100 µM | SNB-19 81.1 µM

O=C(CC(C(=O)c1ccco1)c1ccsc1)c1ccco1 (centres undefined)
inactive: A498 > 100 µM | LOX IMVI > 100 µM | UO-31 58.9 µM | K562 78 µM | SK-MEL-28 > 100 µM | ACHN > 100 µM | A549 28.8 µM | SK-MEL-5 > 100 µM | RPMI-8226 > 100 µM | NCI-H522 76.9 µM | IGROV-1 > 100 µM | U-251 > 100 µM | SF-539 > 100 µM | NCI-H226 > 100 µM | MDA-MB-435 > 100 µM | CAKI-1 > 100 µM | HL-60 89.7 µM

CC1CC(=O)N(N(C)C)C2(C#N)C(=O)N=C(N)C12C#N (centres undefined)
inactive: A498 > 100 µM | LOX IMVI > 100 µM | UO-31 > 100 µM | SK-MEL-2 > 100 µM | K562 27.2 µM | ACHN > 100 µM | A549 > 100 µM | SK-MEL-5 > 100 µM | RPMI-8226 35.4 µM | NCI-H522 32.4 µM | IGROV-1 > 100 µM | U-251 > 100 µM | SF-539 > 100 µM | MDA-MB-435 > 100 µM | CAKI-1 23.4 µM | Malme-3M > 100 µM | HL-60 19.3 µM | SNB-19 > 100 µM

CC(C)=CCC12Cc3ccc(O)cc3C(C(C)CN1)C2C (centres undefined)
inactive: A498 50.9 µM | LOX IMVI 42.9 µM | UO-31 27 µM | K562 34.4 µM | SK-MEL-28 49.9 µM | ACHN > 100 µM | A549 > 100 µM | SK-MEL-5 > 10 µM | RPMI-8226 37.2 µM | IGROV-1 > 100 µM | U-251 83.4 µM | SF-539 72.1 µM | NCI-H226 > 100 µM | MDA-MB-435 44.9 µM | Malme-3M > 100 µM | HL-60 28.1 µM | SNB-19 > 100 µM

CC(=O)NC1C(OCc2ccccc2)OC(CO)C(O)C1OCC(=O)N[C@@H](C)C(=O)N[C@H](CCC(=O)NCCNc1ccc([N+](=O)[O-])c2[nH]c3ccccc3c(=O)c12)C(N)=O (some centres undefined)
inactive: A498 24 µM | LOX IMVI 25.9 µM | UO-31 13.8 µM | K562 58.9 µM | SK-MEL-28 33.2 µM | ACHN 12.1 µM | SK-MEL-5 24.8 µM | RPMI-8226 23 µM | NCI-H522 7.62 µM | U-251 29.5 µM | SF-539 2.21 µM | NCI-H226 12.8 µM | MDA-MB-435 22.4 µM | CAKI-1 29.9 µM | Malme-3M 84.5 µM | HL-60 54.7 µM | SNB-19 23 µM

Cc1cn(C2CC(OC(c3ccccc3)(c3ccccc3)c3ccccc3)C(COC(c3ccccc3)(c3ccccc3)c3ccccc3)O2)c(=O)[nH]c1=O (centres undefined)
inactive: A498 25.4 µM | LOX IMVI 60 µM | UO-31 45.6 µM | SK-MEL-2 23.7 µM | K562 38.6 µM | SK-MEL-28 36.8 µM | ACHN 68.4 µM | A549 34.3 µM | SK-MEL-5 43.3 µM | IGROV-1 > 100 µM | SF-539 > 100 µM | NCI-H226 26.1 µM | MDA-MB-435 26.2 µM | CAKI-1 > 100 µM | Malme-3M 68.7 µM | HL-60 53.1 µM | SNB-19 11.7 µM

COC(=O)C1CC23C4=C(CCC41)CCC1CN4CC(C)C(CC(OC(C)=O)C12COC(C)=O)C43O (centres undefined)
inactive: A498 > 100 µM | LOX IMVI > 100 µM | UO-31 > 100 µM | SK-MEL-2 > 100 µM | K562 > 100 µM | SK-MEL-28 > 100 µM | ACHN > 100 µM | A549 > 100 µM | SK-MEL-5 > 100 µM | RPMI-8226 > 100 µM | NCI-H522 > 100 µM | IGROV-1 > 100 µM | U-251 > 100 µM | SF-539 > 100 µM | MDA-MB-435 > 100 µM | CAKI-1 > 100 µM | Malme-3M > 100 µM | HL-60 > 100 µM | SNB-19 > 100 µM

CC(CO)CCNc1ncnc2c1ncn2CCC(=O)OC(C)(C)C (centres undefined)
inactive: A498 > 100 µM | LOX IMVI > 100 µM | UO-31 > 100 µM | K562 > 100 µM | SK-MEL-28 > 100 µM | ACHN > 100 µM | A549 > 100 µM | SK-MEL-5 > 100 µM | RPMI-8226 > 100 µM | NCI-H522 > 100 µM | IGROV-1 > 100 µM | SF-539 > 100 µM | NCI-H226 > 100 µM | MDA-MB-435 > 100 µM | CAKI-1 > 100 µM | Malme-3M > 100 µM | HL-60 > 100 µM | SNB-19 > 100 µM

Cc1nc(C)c(N2CCN(CN)CC2)c(O)n1
inactive: A498 > 100 µM | LOX IMVI > 100 µM | UO-31 > 100 µM | K562 > 100 µM | SK-MEL-28 > 100 µM | ACHN > 100 µM | A549 > 100 µM | SK-MEL-5 > 100 µM | RPMI-8226 > 100 µM | NCI-H522 > 100 µM | IGROV-1 > 100 µM | U-251 56.8 µM | SF-539 > 100 µM | NCI-H226 > 100 µM | MDA-MB-435 > 100 µM | CAKI-1 8.15 µM | Malme-3M > 100 µM | HL-60 > 100 µM | SNB-19 > 100 µM

CCOC(=O)/C=C/[C@H](O)[C@@H](O)/C=C/C(=O)OCC
inactive: A498 42.7 µM | LOX IMVI 23.9 µM | UO-31 61.8 µM | SK-MEL-2 30.8 µM | K562 10.6 µM | SK-MEL-28 18.2 µM | ACHN 23.8 µM | A549 40.7 µM | SK-MEL-5 22.6 µM | RPMI-8226 21.2 µM | NCI-H522 20.7 µM | IGROV-1 30.7 µM | U-251 31 µM | SF-539 33.5 µM | NCI-H226 > 100 µM | MDA-MB-435 29.9 µM | CAKI-1 23.1 µM | Malme-3M 21.6 µM | SNB-19 22 µM

COc1nc(C#CC2(O)CCCCC2)nc(OC)n1
inactive: A498 17.3 µM | LOX IMVI 2.83 µM | UO-31 3.82 µM | SK-MEL-2 14 µM | K562 6.49 µM | SK-MEL-28 13.9 µM | ACHN 8.49 µM | A549 13.9 µM | SK-MEL-5 7.43 µM | RPMI-8226 2.88 µM | NCI-H522 10 µM | IGROV-1 11.1 µM | U-251 12.4 µM | SF-539 9.16 µM | MDA-MB-435 5.82 µM | CAKI-1 4.19 µM | Malme-3M 3.1 µM | HL-60 2.64 µM | SNB-19 38.7 µM
